Reference: patent US20240208961A1, “EIF4E INHIBITORS AND USES THEREOF” (PIC Therapeutics, Inc., priority 2022, published 2024)

What was measured:
MM.1S cells = experiment: 5 day viability assay in MM.1S cells, I-11 and dexamethasone (Example 7); format: cell-based
Method: (§1) Compound I-11 was studied in the context of dexamethasone combinations, which is used clinically in early Multiple Myeloma prior to the emergence of steroid resistance and is a common backbone therapy. The MM.1S cell line is a steroid sensitive line, and the MM.1R line is the corresponding cell line which has been driven to steroid resistance. The procedure for these studies was as follows:
(§2) Day 1: Cell Seeding and Compound Dosing
(§3) • Cells were seeded 2×10^5 in 96-well cell culture treated tissue culture plates: 87.5 μL/well; MM.1 S and MM.1R • A 5-fold serial dilution of each compound in DMSO (0-25 mM) was prepared in compound storage plates (stored at −80° C. if not to be used immediately). An 8-point curve was used for compound I-11, and a 6-point curve was used for dexamethasone (0-25 mM). • Cells were rinsed with 1% FBS Media and replaced with 87.5 μL media prior to dosing. • DMSO compound dilution series was diluted in 1% FBS media—2 μL compound in 123 μL media to give a 16× final concentration. Dosing across the plate columns 1-12 (compound I-11 0-400 μM), 6.25 μL 16× in media/well. Dosing down plate rows (columns 1-6 dexamethasone 0-400 μM), 6.25 μL 16× compound in media per well. • Cells were dosed with 12.5 μL for both compounds, with 2 replicates of dosing matrix per 96-well plate. Final volume cells and compound was 100 μL/well. • Media blank 100 μL/well×8 was set up. • All plates were incubated at 37° C.
(§4) Day 6: 5 Day Viability Assay
(§5) • Alamar Blue viability reagent was added (10 μL per well) and incubated for 3 hours at 37° C. prior to fluorescence detection (Ex560 nm/Em590 nm) on a Varioskan Lux multimode plate reader.

MM.1R cells = experiment: 5 day viability assay in MM.1R cells, I-11 and dexamethasone (Example 7); format: cell-based
Method: as §1, §2, §3, §4, §5

IC50 (MM.1S cells; Homo sapiens, MM1.S, 120 h, MM.1S cells (steroid sensitive), 5 days, Alamar Blue, read-out: IC50 (μM), Viability Assessment (5 Days) in MM.1S Cells): 0.423 µM | IC50 (MM.1R cells; 120 h, MM.1R cells (steroid resistant), 5 days, Alamar Blue, read-out: IC50 (μM), Viability Assessment (5 Days) in MM.1R Cells): 0.179 µM
Compound: CC(C)Cc1sc(Nc2ncc(-c3cccs3)cc2C(=O)O)nc1C(C)(C)C [Compound I-11]
viability of MM.1S cells (MM.1S cells; MM.1S cells, FIG. 12): significant decreases in viability | impact on viability in combination with dexamethasone (MM.1S cells; MM.1S cells, dosing matrix I-11 x dexamethasone, FIG. 13): additive to dexamethasone | viability of MM.1R cells (MM.1R cells; MM.1R cells, FIG. 12): significant decreases in viability
